How the values were obtained:
Experiment in all cases: radiometric filter-binding kinase assay, Kinase HotSpot
Settings in all cases: compound 0.5 µM; ATP 10 µM
NEK3 (human) = NEK3 (human) (UniProt P51956)
PBK (human) = PBK (human) (UniProt Q96KB5)
GRK7 (human) = GRK7 (human) (UniProt Q8WTQ7)
TGFBR2 (human) = TGFBR2 (human) (UniProt P37173)
HCK (human) = HCK (human) (UniProt P08631)
SIK2 (human) = SIK2 (human) (UniProt Q9H0K1)
NEK2 (human) = NEK2 (human) (UniProt P51955)
GRK4 (human) = GRK4 (human) (UniProt P32298)
Chain of GRK4 (human) (P32298 whole entry, looked up): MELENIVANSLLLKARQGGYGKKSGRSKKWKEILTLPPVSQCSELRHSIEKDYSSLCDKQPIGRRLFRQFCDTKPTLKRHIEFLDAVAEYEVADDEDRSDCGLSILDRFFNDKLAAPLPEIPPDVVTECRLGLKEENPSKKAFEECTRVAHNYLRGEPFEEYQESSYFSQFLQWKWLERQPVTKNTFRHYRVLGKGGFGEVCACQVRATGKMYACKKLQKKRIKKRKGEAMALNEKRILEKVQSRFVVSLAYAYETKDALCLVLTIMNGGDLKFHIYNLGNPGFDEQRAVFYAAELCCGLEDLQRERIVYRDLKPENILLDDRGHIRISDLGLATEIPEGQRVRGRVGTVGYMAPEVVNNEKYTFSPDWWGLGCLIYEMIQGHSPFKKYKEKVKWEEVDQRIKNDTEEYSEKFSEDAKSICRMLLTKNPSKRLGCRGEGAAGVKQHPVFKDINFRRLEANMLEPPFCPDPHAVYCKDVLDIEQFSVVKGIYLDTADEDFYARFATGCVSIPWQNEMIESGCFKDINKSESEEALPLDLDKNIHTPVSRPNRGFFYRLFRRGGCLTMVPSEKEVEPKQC

ITK (human) = ITK (human) (UniProt Q08881)
ULK3 (human) = ULK3 (human) (UniProt Q6PHR2)
Chain of ULK3 (human) (Q6PHR2 whole entry, looked up): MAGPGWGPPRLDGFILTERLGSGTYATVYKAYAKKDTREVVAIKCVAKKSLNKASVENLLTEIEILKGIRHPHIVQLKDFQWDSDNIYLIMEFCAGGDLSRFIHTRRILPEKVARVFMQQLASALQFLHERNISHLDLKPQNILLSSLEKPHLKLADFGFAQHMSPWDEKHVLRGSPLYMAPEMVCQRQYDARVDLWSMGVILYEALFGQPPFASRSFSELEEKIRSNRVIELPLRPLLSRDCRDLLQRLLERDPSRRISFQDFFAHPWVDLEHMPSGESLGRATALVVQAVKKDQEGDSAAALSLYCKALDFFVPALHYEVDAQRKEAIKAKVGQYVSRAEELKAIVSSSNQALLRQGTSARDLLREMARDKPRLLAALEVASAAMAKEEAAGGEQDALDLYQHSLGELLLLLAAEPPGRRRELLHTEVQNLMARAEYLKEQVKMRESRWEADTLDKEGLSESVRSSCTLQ

PASK (human) = PASK (human) (UniProt Q96RG2)
BTK (human) = BTK (human) (UniProt Q06187)
TAOK1 (human) = TAOK1 (human) (UniProt Q7L7X3)
INSR (human) = INSR (human) (UniProt P06213)
MAP3K8 (human) = MAP3K8 (human) (UniProt P41279)
Chain of MAP3K8 (human) (P41279 whole entry, looked up): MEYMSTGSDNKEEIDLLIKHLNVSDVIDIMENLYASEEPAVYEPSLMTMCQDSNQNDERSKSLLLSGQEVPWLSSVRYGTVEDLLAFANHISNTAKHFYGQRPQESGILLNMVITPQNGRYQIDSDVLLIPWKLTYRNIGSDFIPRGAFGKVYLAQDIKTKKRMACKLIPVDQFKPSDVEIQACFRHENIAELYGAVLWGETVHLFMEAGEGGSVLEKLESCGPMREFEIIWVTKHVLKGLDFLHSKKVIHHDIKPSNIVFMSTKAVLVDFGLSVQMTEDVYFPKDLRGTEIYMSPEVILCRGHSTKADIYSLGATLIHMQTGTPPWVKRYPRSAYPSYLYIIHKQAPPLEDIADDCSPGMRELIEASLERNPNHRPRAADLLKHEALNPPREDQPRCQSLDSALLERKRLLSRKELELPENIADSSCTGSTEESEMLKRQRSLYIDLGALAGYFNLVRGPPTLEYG

IRAK4 (human) = IRAK4 (human) (UniProt Q9NWZ3)
NEK11 (human) = NEK11 (human) (UniProt Q8NG66)
PIM2 (human) = PIM2 (human) (UniProt Q9P1W9)
FGFR4 (human) = FGFR4 (human) (UniProt P22455)
CHEK1 (human) = CHEK1 (human) (UniProt O14757)
NEK6 (human) = NEK6 (human) (UniProt Q9HC98)
PRKCA (human) = PRKCA (human) (UniProt P17252)
PRKD1 (human) = PRKD1 (human) (UniProt Q15139)
Chain of PRKD1 (human) (Q15139 whole entry, looked up): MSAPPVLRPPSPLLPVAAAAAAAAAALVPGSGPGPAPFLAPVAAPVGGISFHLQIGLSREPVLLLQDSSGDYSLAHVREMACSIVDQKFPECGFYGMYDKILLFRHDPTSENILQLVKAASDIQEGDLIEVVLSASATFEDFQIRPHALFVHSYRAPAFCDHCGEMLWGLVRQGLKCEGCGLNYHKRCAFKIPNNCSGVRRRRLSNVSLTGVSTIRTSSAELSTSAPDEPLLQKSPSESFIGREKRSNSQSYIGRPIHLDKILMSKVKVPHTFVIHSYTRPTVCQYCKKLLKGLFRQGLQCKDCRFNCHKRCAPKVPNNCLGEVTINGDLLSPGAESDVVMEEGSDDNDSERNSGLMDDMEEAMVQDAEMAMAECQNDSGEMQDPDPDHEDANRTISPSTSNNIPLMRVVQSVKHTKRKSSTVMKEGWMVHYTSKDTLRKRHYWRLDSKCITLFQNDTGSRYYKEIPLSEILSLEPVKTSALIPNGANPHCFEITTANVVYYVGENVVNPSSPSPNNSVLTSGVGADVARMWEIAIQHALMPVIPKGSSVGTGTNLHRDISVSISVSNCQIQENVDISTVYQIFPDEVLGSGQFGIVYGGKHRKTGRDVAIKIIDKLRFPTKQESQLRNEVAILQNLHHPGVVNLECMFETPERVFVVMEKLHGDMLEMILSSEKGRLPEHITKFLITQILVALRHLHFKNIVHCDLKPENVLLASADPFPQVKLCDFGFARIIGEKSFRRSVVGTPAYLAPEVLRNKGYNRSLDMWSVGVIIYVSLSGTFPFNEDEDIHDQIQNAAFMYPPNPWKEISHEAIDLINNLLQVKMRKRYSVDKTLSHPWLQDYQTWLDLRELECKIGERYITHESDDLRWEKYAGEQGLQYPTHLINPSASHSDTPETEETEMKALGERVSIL

TYRO3 (human) = TYRO3 (human) (UniProt Q06418)
Chain of TYRO3 (human) (Q06418 whole entry, looked up): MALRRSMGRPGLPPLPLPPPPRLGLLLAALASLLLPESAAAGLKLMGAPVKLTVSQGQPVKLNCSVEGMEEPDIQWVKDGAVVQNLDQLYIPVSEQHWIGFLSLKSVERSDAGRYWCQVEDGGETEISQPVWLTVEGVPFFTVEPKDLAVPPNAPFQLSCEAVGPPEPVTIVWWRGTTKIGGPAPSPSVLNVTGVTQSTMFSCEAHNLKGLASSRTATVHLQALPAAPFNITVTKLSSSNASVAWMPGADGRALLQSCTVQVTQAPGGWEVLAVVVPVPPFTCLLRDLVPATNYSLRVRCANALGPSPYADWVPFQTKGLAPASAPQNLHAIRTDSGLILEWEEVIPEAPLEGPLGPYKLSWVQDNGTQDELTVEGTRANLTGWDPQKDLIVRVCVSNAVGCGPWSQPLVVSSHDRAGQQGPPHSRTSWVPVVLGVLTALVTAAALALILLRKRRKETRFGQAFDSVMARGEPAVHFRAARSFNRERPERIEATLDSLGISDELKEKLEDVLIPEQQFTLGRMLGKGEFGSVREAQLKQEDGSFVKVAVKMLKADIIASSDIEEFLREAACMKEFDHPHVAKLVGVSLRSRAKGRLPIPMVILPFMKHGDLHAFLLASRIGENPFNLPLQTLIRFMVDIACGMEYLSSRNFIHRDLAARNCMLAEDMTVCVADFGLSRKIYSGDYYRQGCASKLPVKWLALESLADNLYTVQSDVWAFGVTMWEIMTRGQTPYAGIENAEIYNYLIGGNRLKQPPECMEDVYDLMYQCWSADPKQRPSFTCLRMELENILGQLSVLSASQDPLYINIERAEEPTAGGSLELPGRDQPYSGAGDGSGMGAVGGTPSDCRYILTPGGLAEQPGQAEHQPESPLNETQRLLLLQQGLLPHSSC

PIM3 (human) = PIM3 (human) (UniProt Q86V86)
TNK2 (human) = TNK2 (human) (UniProt Q07912)
RPS6KA1 KD1 KD2 (human) = RPS6KA1 KD1 KD2 (human) (UniProt Q15418)
Chain of RPS6KA1 KD1 KD2 (human) (Q15418 whole entry, looked up): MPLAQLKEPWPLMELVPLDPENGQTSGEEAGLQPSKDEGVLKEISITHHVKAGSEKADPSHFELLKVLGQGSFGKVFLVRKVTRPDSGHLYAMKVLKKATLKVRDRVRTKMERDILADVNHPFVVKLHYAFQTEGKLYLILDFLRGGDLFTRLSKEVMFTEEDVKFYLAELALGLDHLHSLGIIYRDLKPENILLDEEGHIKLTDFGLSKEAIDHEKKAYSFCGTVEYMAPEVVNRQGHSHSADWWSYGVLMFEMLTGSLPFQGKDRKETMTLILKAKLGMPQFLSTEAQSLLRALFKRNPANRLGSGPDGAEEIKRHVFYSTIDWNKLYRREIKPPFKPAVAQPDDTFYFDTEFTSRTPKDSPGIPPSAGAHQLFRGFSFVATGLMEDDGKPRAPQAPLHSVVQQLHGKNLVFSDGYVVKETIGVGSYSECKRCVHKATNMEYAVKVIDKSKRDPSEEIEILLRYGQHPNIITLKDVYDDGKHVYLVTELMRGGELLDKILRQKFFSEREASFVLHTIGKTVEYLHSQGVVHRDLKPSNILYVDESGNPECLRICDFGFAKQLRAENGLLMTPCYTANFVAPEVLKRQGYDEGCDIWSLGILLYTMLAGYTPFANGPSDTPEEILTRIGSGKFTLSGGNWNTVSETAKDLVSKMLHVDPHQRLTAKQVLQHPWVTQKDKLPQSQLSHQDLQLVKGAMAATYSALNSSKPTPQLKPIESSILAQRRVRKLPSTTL

MAP2K1 (human) = MAP2K1 (human) (UniProt Q02750)
MAP3K5 (human) = MAP3K5 (human) (UniProt Q99683)
PLK1 (human) = PLK1 (human) (UniProt P53350)
RPS6KB1 (human) = RPS6KB1 (human) (UniProt P23443)
MARK4 (human) = MARK4 (human) (UniProt Q96L34)
MAPKAPK3 (human) = MAPKAPK3 (human) (UniProt Q16644)
YES1 (human) = YES1 (human) (UniProt P07947)
ADRBK2 (human) = ADRBK2 (human) (UniProt P35626)
TXK (human) = TXK (human) (UniProt P42681)
TGFBR1 (human) = TGFBR1 (human) (UniProt P36897)
MAPK10 (human) = MAPK10 (human) (UniProt P53779)
OXSR1 (human) = OXSR1 (human) (UniProt O95747)
CDK4 CCND3 (human) = CDK4 CCND3 (human) (UniProt P30281+P11802)
MYO3B (human) = MYO3B (human) (UniProt Q8WXR4)
[1] = molecular target: TYK2 JH1 catalytic (human) (UniProt P29597)

Chain of PBK (human) (Q96KB5 whole entry, looked up): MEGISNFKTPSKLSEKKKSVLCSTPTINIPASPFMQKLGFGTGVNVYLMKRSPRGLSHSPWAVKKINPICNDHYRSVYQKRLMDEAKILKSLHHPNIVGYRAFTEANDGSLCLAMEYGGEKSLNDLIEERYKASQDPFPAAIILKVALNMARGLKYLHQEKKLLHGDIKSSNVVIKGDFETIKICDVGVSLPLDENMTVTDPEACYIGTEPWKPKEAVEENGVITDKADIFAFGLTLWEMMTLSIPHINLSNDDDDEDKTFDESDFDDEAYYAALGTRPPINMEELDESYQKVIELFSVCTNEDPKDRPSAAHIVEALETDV
Chain of TGFBR2 (human) (P37173 whole entry, looked up): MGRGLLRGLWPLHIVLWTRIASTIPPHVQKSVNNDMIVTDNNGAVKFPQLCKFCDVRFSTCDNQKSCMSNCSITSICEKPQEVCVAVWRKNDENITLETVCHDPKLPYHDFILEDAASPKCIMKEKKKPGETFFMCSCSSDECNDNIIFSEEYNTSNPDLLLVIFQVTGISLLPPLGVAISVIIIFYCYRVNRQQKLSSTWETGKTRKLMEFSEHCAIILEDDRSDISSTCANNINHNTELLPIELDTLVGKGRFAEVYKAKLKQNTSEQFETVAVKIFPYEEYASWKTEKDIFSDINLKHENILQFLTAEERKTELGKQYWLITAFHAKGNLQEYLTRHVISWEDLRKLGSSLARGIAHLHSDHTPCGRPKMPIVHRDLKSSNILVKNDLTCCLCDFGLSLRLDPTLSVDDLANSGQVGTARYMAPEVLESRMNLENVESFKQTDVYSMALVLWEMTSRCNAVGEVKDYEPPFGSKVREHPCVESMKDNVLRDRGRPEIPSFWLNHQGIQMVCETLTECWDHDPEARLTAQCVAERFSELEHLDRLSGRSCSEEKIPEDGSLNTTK

SMILES: Cc1[nH]c(/C=C2\C(=O)Nc3ccc(S(=O)(=O)N(C)c4cccc(Cl)c4)cc32)c(C)c1C(=O)N1CCN(C)CC1
- residual activity (NEK3 (human)): 98.7%
- residual activity (PBK (human)): 104%
- residual activity (GRK7 (human)): 86.7%
- residual activity (TGFBR2 (human)): 127%
- residual activity (HCK (human)): 63.5%
- residual activity (SIK2 (human)): 86%
- residual activity (NEK2 (human)): 50.8%
- residual activity (GRK4 (human)): 103%
- residual activity (ITK (human)): 87.4%
- residual activity (ULK3 (human)): 55.3%
- residual activity (PASK (human)): 106%
- residual activity (BTK (human)): 93.1%
- residual activity (TAOK1 (human)): 41.9%
- residual activity (INSR (human)): 98.8%
- residual activity (MAP3K8 (human)): 82.9%
- residual activity (IRAK4 (human)): 65.5%
- residual activity (NEK11 (human)): 103%
- residual activity (PIM2 (human)): 103%
- residual activity (FGFR4 (human)): 104%
- residual activity (CHEK1 (human)): 89.7%
- residual activity (NEK6 (human)): 104%
- residual activity (PRKCA (human)): 91.9%
- residual activity (PRKD1 (human)): 61.8%
- residual activity (TYRO3 (human)): 34.7%
- residual activity (PIM3 (human)): 106%
- residual activity (TNK2 (human)): 65.4%
- residual activity (RPS6KA1 KD1 KD2 (human)): 54.4%
- residual activity (MAP2K1 (human)): 89.3%
- residual activity (MAP3K5 (human)): 105%
- residual activity (PLK1 (human)): 96.9%
- residual activity (RPS6KB1 (human)): 83.7%
- residual activity (MARK4 (human)): 36.2%
- residual activity (MAPKAPK3 (human)): 96.9%
- residual activity (YES1 (human)): 27%
- residual activity (ADRBK2 (human)): 103%
- residual activity (TXK (human)): 102%
- residual activity (TGFBR1 (human)): 103%
- residual activity (MAPK10 (human)): 99%
- residual activity (OXSR1 (human)): 116%
- residual activity (CDK4 CCND3 (human)): 101%
- residual activity (MYO3B (human)): 72.5%
- residual activity [1]: 75.1%

SMILES: CCCC(=O)Oc1ccc2[nH]c(C(=O)c3cc4ccccc4[nH]3)cc2c1
- residual activity (NEK3 (human)): 95.5%
- residual activity (PBK (human)): 104%
- residual activity (GRK7 (human)): 105%
- residual activity (TGFBR2 (human)): 101%
- residual activity (HCK (human)): 95.1%
- residual activity (SIK2 (human)): 97.6%
- residual activity (NEK2 (human)): 86.8%
- residual activity (GRK4 (human)): 93.7%
- residual activity (ITK (human)): 82%
- residual activity (ULK3 (human)): 89.5%
- residual activity (PASK (human)): 88.7%
- residual activity (BTK (human)): 88.2%
- residual activity (TAOK1 (human)): 82.8%
- residual activity (INSR (human)): 101%
- residual activity (MAP3K8 (human)): 97.6%
- residual activity (IRAK4 (human)): 82.7%
- residual activity (NEK11 (human)): 101%
- residual activity (PIM2 (human)): 101%
- residual activity (FGFR4 (human)): 90.9%
- residual activity (CHEK1 (human)): 89.7%
- residual activity (NEK6 (human)): 101%
- residual activity (PRKCA (human)): 102%
- residual activity (PRKD1 (human)): 88.7%
- residual activity (TYRO3 (human)): 101%
- residual activity (PIM3 (human)): 84.5%
- residual activity (TNK2 (human)): 77.7%
- residual activity (RPS6KA1 KD1 KD2 (human)): 91.3%
- residual activity (MAP2K1 (human)): 99.9%
- residual activity (MAP3K5 (human)): 103%
- residual activity (PLK1 (human)): 101%
- residual activity (RPS6KB1 (human)): 94.5%
- residual activity (MARK4 (human)): 84.1%
- residual activity (MAPKAPK3 (human)): 94.3%
- residual activity (YES1 (human)): 84.4%
- residual activity (ADRBK2 (human)): 101%
- residual activity (TXK (human)): 99.1%
- residual activity (TGFBR1 (human)): 101%
- residual activity (MAPK10 (human)): 100%
- residual activity (OXSR1 (human)): 92.4%
- residual activity (CDK4 CCND3 (human)): 103%
- residual activity (MYO3B (human)): 98.6%
- residual activity [1]: 90.7%

SMILES: Nc1ncnc2c1c(-c1ccc(Oc3ccccc3)cc1)cn2C1CCCC1
- residual activity (NEK3 (human)): 98.4%
- residual activity (PBK (human)): 114%
- residual activity (GRK7 (human)): 114%
- residual activity (TGFBR2 (human)): 166%
- residual activity (HCK (human)): 2.18%
- residual activity (SIK2 (human)): 101%
- residual activity (NEK2 (human)): 88.5%
- residual activity (GRK4 (human)): 103%
- residual activity (ITK (human)): 87.1%
- residual activity (ULK3 (human)): 102%
- residual activity (PASK (human)): 98.5%
- residual activity (BTK (human)): 4.56%
- residual activity (TAOK1 (human)): 84.6%
- residual activity (INSR (human)): 103%
- residual activity (MAP3K8 (human)): 83.3%
- residual activity (IRAK4 (human)): 98.5%
- residual activity (NEK11 (human)): 87.1%
- residual activity (PIM2 (human)): 110%
- residual activity (FGFR4 (human)): 98%
- residual activity (CHEK1 (human)): 113%
- residual activity (NEK6 (human)): 107%
- residual activity (PRKCA (human)): 106%
- residual activity (PRKD1 (human)): 96.2%
- residual activity (TYRO3 (human)): 102%
- residual activity (PIM3 (human)): 98.7%
- residual activity (TNK2 (human)): 2.7%
- residual activity (RPS6KA1 KD1 KD2 (human)): 94.2%
- residual activity (MAP2K1 (human)): 93%
- residual activity (MAP3K5 (human)): 99.1%
- residual activity (PLK1 (human)): 100%
- residual activity (RPS6KB1 (human)): 104%
- residual activity (MARK4 (human)): 85.2%
- residual activity (MAPKAPK3 (human)): 109%
- residual activity (YES1 (human)): 0.657%
- residual activity (ADRBK2 (human)): 92.2%
- residual activity (TXK (human)): 17.3%
- residual activity (TGFBR1 (human)): 96.1%
- residual activity (MAPK10 (human)): 87.4%
- residual activity (OXSR1 (human)): 93.5%
- residual activity (CDK4 CCND3 (human)): 108%
- residual activity (MYO3B (human)): 103%
- residual activity [1]: 98.5%

SMILES: Nc1ccc2ncnc(NCCc3ccc(Oc4ccccc4)cc3)c2c1
- residual activity (NEK3 (human)): 108%
- residual activity (PBK (human)): 98.2%
- residual activity (GRK7 (human)): 104%
- residual activity (TGFBR2 (human)): 110%
- residual activity (HCK (human)): 96.4%
- residual activity (SIK2 (human)): 97.4%
- residual activity (NEK2 (human)): 90%
- residual activity (GRK4 (human)): 99.6%
- residual activity (ITK (human)): 104%
- residual activity (ULK3 (human)): 112%
- residual activity (PASK (human)): 103%
- residual activity (BTK (human)): 96.8%
- residual activity (TAOK1 (human)): 84.2%
- residual activity (INSR (human)): 103%
- residual activity (MAP3K8 (human)): 97.2%
- residual activity (IRAK4 (human)): 92.4%
- residual activity (NEK11 (human)): 105%
- residual activity (PIM2 (human)): 119%
- residual activity (FGFR4 (human)): 104%
- residual activity (CHEK1 (human)): 101%
- residual activity (NEK6 (human)): 103%
- residual activity (PRKCA (human)): 103%
- residual activity (PRKD1 (human)): 99.3%
- residual activity (TYRO3 (human)): 101%
- residual activity (PIM3 (human)): 104%
- residual activity (TNK2 (human)): 102%
- residual activity (RPS6KA1 KD1 KD2 (human)): 108%
- residual activity (MAP2K1 (human)): 107%
- residual activity (MAP3K5 (human)): 105%
- residual activity (PLK1 (human)): 91.1%
- residual activity (RPS6KB1 (human)): 99.5%
- residual activity (MARK4 (human)): 105%
- residual activity (MAPKAPK3 (human)): 101%
- residual activity (YES1 (human)): 112%
- residual activity (ADRBK2 (human)): 97.9%
- residual activity (TXK (human)): 102%
- residual activity (TGFBR1 (human)): 97.7%
- residual activity (MAPK10 (human)): 104%
- residual activity (OXSR1 (human)): 101%
- residual activity (CDK4 CCND3 (human)): 109%
- residual activity (MYO3B (human)): 96.6%
- residual activity [1]: 99.9%

Reference: the kinase profiling compilation of Christmann-Franck et al. (2016)
